Measurements taken from US12679822B2, “Alkenyl pyrimidine compound, preparation method therefor, and application thereof” (Hongyun Biotech Co., Ltd., priority 2020, dated 2026).

Columns and labels:
Format in all cases: cell-based
[1] = biological target: BaF3 cell lines stably transfected with kinase EGFR L858R/T790M (Homo sapiens, UniProt P00533, T790M/L858R, cells depend on it); experiment: Growth inhibition of BaF3 cell line stably transfected with kinase EGFR L858R/T790M (MTS); settings: 48 h, read-out: growth inhibitory activity IC50, L858R/T790M
Sequence of BaF3 cell lines stably transfected with kinase EGFR L858R/T790M (P00533 whole entry T790M/L858R): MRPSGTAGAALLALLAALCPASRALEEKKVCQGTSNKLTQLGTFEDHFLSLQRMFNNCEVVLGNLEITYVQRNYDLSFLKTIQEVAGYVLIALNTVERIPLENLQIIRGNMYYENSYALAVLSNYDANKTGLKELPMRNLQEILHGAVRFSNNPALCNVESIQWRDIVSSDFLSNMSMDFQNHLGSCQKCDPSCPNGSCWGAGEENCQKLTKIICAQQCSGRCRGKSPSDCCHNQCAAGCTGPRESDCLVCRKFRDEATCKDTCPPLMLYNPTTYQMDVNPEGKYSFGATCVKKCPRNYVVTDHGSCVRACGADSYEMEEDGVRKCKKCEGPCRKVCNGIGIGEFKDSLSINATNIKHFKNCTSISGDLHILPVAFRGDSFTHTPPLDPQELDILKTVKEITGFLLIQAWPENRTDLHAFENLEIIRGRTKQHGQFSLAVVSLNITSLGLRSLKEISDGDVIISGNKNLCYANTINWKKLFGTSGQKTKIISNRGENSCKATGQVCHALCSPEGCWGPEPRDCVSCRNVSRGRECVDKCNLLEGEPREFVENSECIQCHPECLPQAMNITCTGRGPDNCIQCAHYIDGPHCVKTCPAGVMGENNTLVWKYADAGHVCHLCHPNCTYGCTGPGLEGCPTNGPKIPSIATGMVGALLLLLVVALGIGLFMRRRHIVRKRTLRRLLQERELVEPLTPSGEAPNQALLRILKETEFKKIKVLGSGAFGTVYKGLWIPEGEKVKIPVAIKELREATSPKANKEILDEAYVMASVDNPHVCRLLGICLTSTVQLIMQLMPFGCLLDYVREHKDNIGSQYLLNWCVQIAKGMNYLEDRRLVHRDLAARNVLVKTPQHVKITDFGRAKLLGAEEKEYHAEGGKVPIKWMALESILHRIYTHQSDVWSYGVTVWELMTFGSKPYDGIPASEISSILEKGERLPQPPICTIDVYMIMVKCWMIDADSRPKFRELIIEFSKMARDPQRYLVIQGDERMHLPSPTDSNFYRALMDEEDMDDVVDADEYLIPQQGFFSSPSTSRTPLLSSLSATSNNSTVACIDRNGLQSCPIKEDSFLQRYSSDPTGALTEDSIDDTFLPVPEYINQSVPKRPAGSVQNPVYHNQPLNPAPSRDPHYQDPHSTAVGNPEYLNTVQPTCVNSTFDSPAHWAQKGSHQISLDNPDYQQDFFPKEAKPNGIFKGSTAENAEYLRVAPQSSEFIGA
In short: (§1)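 Transfected BaF3 cells exposed 48 h at 37 °C to 8-point, 1/3-step dilutions from 10 μM top in 0.1% DMSO, duplicates. MTS/PES added for 1-4 h, OD 490 nm read; inhibition normalised to DMSO and cell-free blank, IC50 fitted from inhibition rates.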

[2] = biological target: BaF3 cell lines stably transfected with kinase EGFR Del/T790M/C797S (Homo sapiens, UniProt P00533, T790M/C797S, cells depend on it, form not given); experiment: Growth inhibition of BaF3 cell line stably transfected with kinase EGFR Del/T790M/C797S (MTS); settings: 48 h, read-out: growth inhibitory activity IC50, Del/T790M/C797S
In short: as §1

[3] = biological target: BaF3 cell lines stably transfected with kinase EGFR Del (Homo sapiens, UniProt P00533, cells depend on it, form not given); experiment: Growth inhibition of BaF3 cell line stably transfected with kinase EGFR Del (MTS); settings: 48 h, read-out: growth inhibitory activity IC50, Del
Sequence of BaF3 cell lines stably transfected with kinase EGFR Del (P00533 with tags, fused parts or gaps DEL746-750): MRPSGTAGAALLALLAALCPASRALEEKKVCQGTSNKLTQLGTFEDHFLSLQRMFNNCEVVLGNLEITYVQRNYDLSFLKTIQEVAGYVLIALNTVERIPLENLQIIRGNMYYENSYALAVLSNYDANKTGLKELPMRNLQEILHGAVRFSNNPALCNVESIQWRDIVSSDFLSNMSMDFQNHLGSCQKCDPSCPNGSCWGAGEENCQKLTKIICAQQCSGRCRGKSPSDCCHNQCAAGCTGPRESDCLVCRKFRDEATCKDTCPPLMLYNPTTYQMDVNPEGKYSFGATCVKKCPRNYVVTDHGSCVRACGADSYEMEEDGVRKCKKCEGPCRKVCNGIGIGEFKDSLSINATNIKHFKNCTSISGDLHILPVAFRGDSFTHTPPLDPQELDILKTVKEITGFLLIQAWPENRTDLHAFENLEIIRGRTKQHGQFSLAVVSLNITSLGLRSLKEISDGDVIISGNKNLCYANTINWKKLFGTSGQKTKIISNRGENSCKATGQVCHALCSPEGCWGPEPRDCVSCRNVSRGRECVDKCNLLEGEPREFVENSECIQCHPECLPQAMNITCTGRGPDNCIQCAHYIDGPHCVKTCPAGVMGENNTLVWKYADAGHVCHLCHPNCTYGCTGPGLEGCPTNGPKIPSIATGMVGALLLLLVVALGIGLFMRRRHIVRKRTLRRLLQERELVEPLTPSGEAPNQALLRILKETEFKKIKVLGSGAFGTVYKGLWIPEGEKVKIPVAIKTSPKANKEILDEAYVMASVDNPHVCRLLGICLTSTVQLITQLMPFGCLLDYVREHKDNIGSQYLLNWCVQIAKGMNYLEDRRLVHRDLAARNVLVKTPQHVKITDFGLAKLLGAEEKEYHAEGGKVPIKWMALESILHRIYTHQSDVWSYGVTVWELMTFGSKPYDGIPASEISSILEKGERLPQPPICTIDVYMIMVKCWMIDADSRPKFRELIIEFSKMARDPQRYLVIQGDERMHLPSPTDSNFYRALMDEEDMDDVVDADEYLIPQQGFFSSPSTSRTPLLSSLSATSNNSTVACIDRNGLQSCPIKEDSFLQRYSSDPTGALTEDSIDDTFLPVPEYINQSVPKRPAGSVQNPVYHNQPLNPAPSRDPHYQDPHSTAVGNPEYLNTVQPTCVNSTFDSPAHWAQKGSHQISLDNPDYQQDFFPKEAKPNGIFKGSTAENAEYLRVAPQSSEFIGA
In short: as §1

[4] = biological target: BaF3 cell lines stably transfected with kinase EGFR L858R (Homo sapiens, UniProt P00533, L858R, cells depend on it); experiment: Growth inhibition of BaF3 cell line stably transfected with kinase EGFR L858R (MTS); settings: 48 h, read-out: growth inhibitory activity IC50, L858R
Sequence of BaF3 cell lines stably transfected with kinase EGFR L858R (P00533 whole entry L858R): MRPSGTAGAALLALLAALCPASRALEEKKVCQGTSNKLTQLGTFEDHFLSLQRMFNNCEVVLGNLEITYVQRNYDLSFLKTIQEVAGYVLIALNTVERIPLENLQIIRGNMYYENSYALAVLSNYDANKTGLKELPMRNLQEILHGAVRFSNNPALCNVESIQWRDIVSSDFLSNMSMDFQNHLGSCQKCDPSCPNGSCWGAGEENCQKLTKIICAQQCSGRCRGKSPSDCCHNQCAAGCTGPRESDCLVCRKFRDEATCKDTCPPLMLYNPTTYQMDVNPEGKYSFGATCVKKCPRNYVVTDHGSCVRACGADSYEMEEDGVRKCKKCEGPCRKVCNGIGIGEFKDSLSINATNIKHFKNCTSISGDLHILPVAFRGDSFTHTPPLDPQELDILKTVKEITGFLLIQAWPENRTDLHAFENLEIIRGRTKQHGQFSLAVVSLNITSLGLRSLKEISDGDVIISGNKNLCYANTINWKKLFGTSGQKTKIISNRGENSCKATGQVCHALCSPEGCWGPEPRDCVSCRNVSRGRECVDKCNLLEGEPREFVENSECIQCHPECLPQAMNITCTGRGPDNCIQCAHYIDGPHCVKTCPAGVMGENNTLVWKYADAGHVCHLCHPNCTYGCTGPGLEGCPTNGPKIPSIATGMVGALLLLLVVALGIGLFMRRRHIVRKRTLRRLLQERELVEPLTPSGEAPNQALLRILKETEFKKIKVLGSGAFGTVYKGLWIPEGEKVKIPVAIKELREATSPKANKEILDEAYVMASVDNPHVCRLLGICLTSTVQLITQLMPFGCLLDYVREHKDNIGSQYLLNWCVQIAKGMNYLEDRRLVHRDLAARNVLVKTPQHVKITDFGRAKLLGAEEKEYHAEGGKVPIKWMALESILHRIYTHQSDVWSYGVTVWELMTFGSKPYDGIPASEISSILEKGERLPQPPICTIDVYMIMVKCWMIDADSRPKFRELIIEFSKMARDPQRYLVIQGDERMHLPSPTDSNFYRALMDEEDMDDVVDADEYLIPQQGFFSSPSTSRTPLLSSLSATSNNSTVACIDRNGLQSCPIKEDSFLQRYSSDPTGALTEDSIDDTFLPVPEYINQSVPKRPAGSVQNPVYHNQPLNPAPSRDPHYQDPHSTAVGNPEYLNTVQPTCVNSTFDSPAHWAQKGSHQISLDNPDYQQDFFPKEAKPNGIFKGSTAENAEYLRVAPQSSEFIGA
In short: as §1

[5] = biological target: BaF3 cell lines stably transfected with kinase EGFR L858R/T790M/C797S (Homo sapiens, UniProt P00533, T790M/C797S/L858R, cells depend on it); experiment: Growth inhibition of BaF3 cell line stably transfected with kinase EGFR L858R/T790M/C797S (MTS); settings: 48 h, read-out: growth inhibitory activity IC50, L858R/T790M/C797S
Sequence of BaF3 cell lines stably transfected with kinase EGFR L858R/T790M/C797S (P00533 whole entry T790M/C797S/L858R): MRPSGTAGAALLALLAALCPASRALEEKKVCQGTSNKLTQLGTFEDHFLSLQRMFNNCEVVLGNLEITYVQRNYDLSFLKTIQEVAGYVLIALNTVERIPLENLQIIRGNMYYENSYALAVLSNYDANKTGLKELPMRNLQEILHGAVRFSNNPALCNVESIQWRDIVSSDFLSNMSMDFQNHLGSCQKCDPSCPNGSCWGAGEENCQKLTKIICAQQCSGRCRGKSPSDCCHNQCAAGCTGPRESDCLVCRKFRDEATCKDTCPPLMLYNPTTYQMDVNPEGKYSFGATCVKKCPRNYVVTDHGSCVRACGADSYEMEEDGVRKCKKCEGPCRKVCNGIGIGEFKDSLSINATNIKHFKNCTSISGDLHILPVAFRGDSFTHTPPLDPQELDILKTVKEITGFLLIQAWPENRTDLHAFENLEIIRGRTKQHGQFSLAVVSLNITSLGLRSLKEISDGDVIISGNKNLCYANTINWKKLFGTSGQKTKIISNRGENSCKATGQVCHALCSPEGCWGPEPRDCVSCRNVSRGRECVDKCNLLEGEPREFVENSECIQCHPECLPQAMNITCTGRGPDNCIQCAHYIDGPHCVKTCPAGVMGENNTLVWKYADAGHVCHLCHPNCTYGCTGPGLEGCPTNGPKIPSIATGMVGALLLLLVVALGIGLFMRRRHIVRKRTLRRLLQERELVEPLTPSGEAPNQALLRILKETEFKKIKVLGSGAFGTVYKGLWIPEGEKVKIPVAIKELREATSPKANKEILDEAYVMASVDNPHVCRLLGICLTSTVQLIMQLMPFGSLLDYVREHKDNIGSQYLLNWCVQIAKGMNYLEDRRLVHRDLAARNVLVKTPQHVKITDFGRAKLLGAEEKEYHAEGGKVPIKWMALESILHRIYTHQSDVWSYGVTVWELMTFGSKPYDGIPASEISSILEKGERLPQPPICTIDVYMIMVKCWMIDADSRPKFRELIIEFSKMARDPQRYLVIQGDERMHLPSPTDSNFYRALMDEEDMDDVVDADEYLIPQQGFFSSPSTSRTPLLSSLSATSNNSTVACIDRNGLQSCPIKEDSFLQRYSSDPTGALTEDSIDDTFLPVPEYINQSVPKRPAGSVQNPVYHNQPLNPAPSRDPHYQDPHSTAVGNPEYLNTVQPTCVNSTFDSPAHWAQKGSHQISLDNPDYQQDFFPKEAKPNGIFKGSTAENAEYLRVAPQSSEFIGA
In short: as §1

[6] = biological target: BaF3 cell lines stably transfected with kinase EGFR Del/T790M (Homo sapiens, UniProt P00533, T790M, cells depend on it, form not given); experiment: Growth inhibition of BaF3 cell line stably transfected with kinase EGFR Del/T790M (MTS); settings: 48 h, read-out: growth inhibitory activity IC50, Del/T790M
In short: as §1

SMILES | GI50 [1] | GI50 [2] | GI50 [3] | GI50 [4] | GI50 [5] | GI50 [6]
C=C(C)c1cnc(Nc2ccc(N3CCC(N4CCN(C)CC4)CC3)c(CC)c2)nc1Nc1ccc2nccnc2c1N(C)S(C)(=O)=O [II-24] | ≤ 50 nM | 50 to 500 nM | ≤ 50 nM | ≤ 50 nM | 50 to 500 nM | ≤ 50 nM
CCc1cc(Nc2ncc(C=C(C)C)c(Nc3ccc4nccnc4c3N(C)S(C)(=O)=O)n2)c(OC)cc1N1CCC(N2CCN(C)CC2)CC1 [II-26] | 500 to 2500 nM | 500 to 2500 nM | ≤ 50 nM | 50 to 500 nM | 500 to 2500 nM | 500 to 2500 nM
CCc1cc(Nc2ncc(C3=CCCC3)c(Nc3ccc4nccnc4c3N(C)S(C)(=O)=O)n2)c(OC)cc1N1CCC(N2CCN(C)CC2)CC1 [II-27] | 500 to 2500 nM | 500 to 2500 nM | ≤ 50 nM | 50 to 500 nM | 500 to 2500 nM | 500 to 2500 nM
CCc1cc(Nc2ncc(/C=C/C3CC3)c(Nc3ccc4nccnc4c3N(C)S(C)(=O)=O)n2)c(OC)cc1N1CCC(N2CCN(C)CC2)CC1 [II-28] | 500 to 2500 nM | 500 to 2500 nM | ≤ 50 nM | 50 to 500 nM | 500 to 2500 nM | 500 to 2500 nM
CCc1cc(Nc2ncc(/C=C/c3ccccc3)c(Nc3ccc4nccnc4c3N(C)S(C)(=O)=O)n2)c(OC)cc1N1CCC(N2CCN(C)CC2)CC1 [II-29] | 500 to 2500 nM | 500 to 2500 nM | 50 to 500 nM | 50 to 500 nM | 500 to 2500 nM | 500 to 2500 nM
C=Cc1cnc(Nc2cc(C)c(N3CCC(N4CCN(C)CC4)CC3)cc2OC)nc1Nc1ccc2nccnc2c1NS(C)(=O)=O [II-31] | 50 to 500 nM | 50 to 500 nM | ≤ 50 nM | ≤ 50 nM | ≤ 50 nM | ≤ 50 nM
C=Cc1cnc(Nc2cc(CC)c(N3CCC(N4CCN(C)CC4)CC3)cc2OC)nc1Nc1ccc2nccnc2c1NS(C)(=O)=O [II-32] | 50 to 500 nM | 50 to 500 nM | ≤ 50 nM | ≤ 50 nM | 50 to 500 nM | ≤ 50 nM
C=Cc1cnc(Nc2cc(CC)c(N3CCC(N4CCN(C)CC4)CC3)nc2OC)nc1Nc1ccc2nccnc2c1NS(C)(=O)=O [II-33] | 50 to 500 nM | 50 to 500 nM | ≤ 50 nM | ≤ 50 nM | 50 to 500 nM | 50 to 500 nM
C=Cc1cnc(Nc2cc(CC)c(N3CCC(N4CCN(C)CC4)CC3)cc2OC(F)(F)F)nc1Nc1ccc2nccnc2c1NS(C)(=O)=O [II-34] | 50 to 500 nM | 50 to 500 nM | 50 to 500 nM | 50 to 500 nM | 50 to 500 nM | 50 to 500 nM
C=Cc1cnc(Nc2cc(C(C)C)c(N3CCC(N4CCN(C)CC4)CC3)cc2OC)nc1Nc1ccc2nccnc2c1NS(C)(=O)=O [II-35] | 500 to 2500 nM | 500 to 2500 nM | 50 to 500 nM | 50 to 500 nM | 50 to 500 nM | 50 to 500 nM
C=Cc1cnc(Nc2cc(C3CC3)c(N3CCC(N4CCN(C)CC4)CC3)cc2OC)nc1Nc1ccc2nccnc2c1NS(C)(=O)=O [II-36] | 50 to 500 nM | 50 to 500 nM | ≤ 50 nM | ≤ 50 nM | ≤ 50 nM | ≤ 50 nM
C=Cc1cnc(Nc2cc(CC3CC3)c(N3CCC(N4CCN(C)CC4)CC3)cc2OC)nc1Nc1ccc2nccnc2c1NS(C)(=O)=O [II-37] | 50 to 500 nM | 50 to 500 nM | ≤ 50 nM | ≤ 50 nM | ≤ 50 nM | ≤ 50 nM
C=Cc1cnc(Nc2ccc(N3CCC(N4CCN(C)CC4)CC3)c(CC)c2)nc1Nc1ccc2nccnc2c1NS(C)(=O)=O [II-38] | ≤ 50 nM | 50 to 500 nM | ≤ 50 nM | ≤ 50 nM | ≤ 50 nM | ≤ 50 nM
C=Cc1cnc(Nc2cc(CC)c(N3CCC(N(C)C)CC3)cc2OC)nc1Nc1ccc2nccnc2c1NS(C)(=O)=O [II-39] | ≤ 50 nM | ≤ 50 nM | ≤ 50 nM | ≤ 50 nM | ≤ 50 nM | ≤ 50 nM
C=Cc1cnc(Nc2cc(CC)c(N3CCC(N(C)C)C3)cc2OC)nc1Nc1ccc2nccnc2c1NS(C)(=O)=O (stereo not drawn) [II-40] | 50 to 500 nM | ≤ 50 nM | ≤ 50 nM | ≤ 50 nM | ≤ 50 nM | ≤ 50 nM
C=Cc1cnc(Nc2cc(CC)c(N3CCN(C)CC3)cc2OC)nc1Nc1ccc2nccnc2c1NS(C)(=O)=O [II-41] | 50 to 500 nM | ≤ 50 nM | ≤ 50 nM | ≤ 50 nM | ≤ 50 nM | ≤ 50 nM

SMILES | GI50 [1] | GI50 [2] | GI50 [3] | GI50 [4] | GI50 [5] | GI50 [6]
C=Cc1cnc(Nc2ccc(N3CCC(N4CCN(C)CC4)CC3)cc2OC)nc1Nc1ccc2nccnc2c1NS(=O)(=O)C(C)C [II-42] | 500 to 2500 nM | 500 to 2500 nM | 500 to 2500 nM | 500 to 2500 nM | 50 to 500 nM | 500 to 2500 nM
C=Cc1cnc(Nc2cc(C)c(N3CCC(N4CCN(C)CC4)CC3)cc2OC)nc1Nc1ccc2nccnc2c1NS(=O)(=O)C(C)C [II-43] | 500 to 2500 nM | 50 to 500 nM | 50 to 500 nM | 50 to 500 nM | 50 to 500 nM | 50 to 500 nM
C=Cc1cnc(Nc2cc(CC)c(N3CCC(N4CCN(C)CC4)CC3)cc2OC)nc1Nc1ccc2nccnc2c1NS(=O)(=O)C(C)C [II-44] | 500 to 2500 nM | 50 to 500 nM | 50 to 500 nM | 50 to 500 nM | ≤ 50 nM | 50 to 500 nM
C=Cc1cnc(Nc2ccc(N3CCC(N4CCN(C)CC4)CC3)c(F)c2F)nc1Nc1ccc2nccnc2c1NS(C)(=O)=O [II-45] | 50 to 500 nM | 500 to 2500 nM | 50 to 500 nM | 50 to 500 nM | 500 to 2500 nM | 50 to 500 nM
C=Cc1cnc(Nc2cc(F)c(N3CCC(N4CCN(C)CC4)CC3)c(F)c2)nc1Nc1ccc2nccnc2c1NS(C)(=O)=O [II-46] | ≤ 50 nM | 50 to 500 nM | 50 to 500 nM | 50 to 500 nM | 50 to 500 nM | 50 to 500 nM
C=Cc1cnc(Nc2cc(CC)c(NCCO)cc2OC)nc1Nc1ccc2nccnc2c1N(C)S(C)(=O)=O [II-49] | 50 to 500 nM | 50 to 500 nM | 500 to 2500 nM | 500 to 2500 nM | 50 to 500 nM | 500 to 2500 nM
C=Cc1cnc(Nc2cc(CC)c(NCCN(C)C)cc2OC)nc1Nc1ccc2nccnc2c1N(C)S(C)(=O)=O [II-50] | 50 to 500 nM | 50 to 500 nM | 500 to 2500 nM | 500 to 2500 nM | 50 to 500 nM | 50 to 500 nM
C=Cc1cnc(Nc2cc(CC)c(N(C)CCN(C)C)cc2OC)nc1Nc1ccc2nccnc2c1N(C)S(C)(=O)=O [II-51] | 50 to 500 nM | 50 to 500 nM | 50 to 500 nM | 500 to 2500 nM | 50 to 500 nM | 50 to 500 nM
C=Cc1cnc(Nc2cc(CC)c(N3CCC(N4CCNCC4)CC3)cc2OC)nc1Nc1ccc2nccnc2c1N(C)S(C)(=O)=O [II-52] | ≤ 50 nM | ≤ 50 nM | 50 to 500 nM | 50 to 500 nM | ≤ 50 nM | 50 to 500 nM
C=Cc1cnc(Nc2cc(CC)c(N3CCC(N4CCN(C)CC4)CC3)cc2OC)nc1Nc1ccc2nccnc2c1N(C)S(C)(=O)=O [II-53] | 50 to 500 nM | ≤ 50 nM | 50 to 500 nM | 50 to 500 nM | ≤ 50 nM | 50 to 500 nM
C=Cc1cnc(Nc2cc(CC)c(N3CCC(C4CN(C)C4)CC3)cc2OC)nc1Nc1ccc2nccnc2c1N(C)S(C)(=O)=O [II-54] | 50 to 500 nM | ≤ 50 nM | ≤ 50 nM | ≤ 50 nM | ≤ 50 nM | ≤ 50 nM
C=Cc1cnc(Nc2cc(CC)c(N3CCC4(CC3)CC(N(C)C)C4)cc2OC)nc1Nc1ccc2nccnc2c1N(C)S(C)(=O)=O [II-55] | 50 to 500 nM | 50 to 500 nM | 50 to 500 nM | 50 to 500 nM | 50 to 500 nM | 50 to 500 nM
C=Cc1cnc(Nc2cc[nH]n2)nc1Nc1ccc2nccnc2c1N(C)S(C)(=O)=O [II-59] | 500 to 2500 nM | 500 to 2500 nM | 50 to 500 nM | 500 to 2500 nM | 500 to 2500 nM | 500 to 2500 nM
C=Cc1cnc(Nc2ccn(CC)n2)nc1Nc1ccc2nccnc2c1N(C)S(C)(=O)=O [II-60] | 500 to 2500 nM | 50 to 500 nM | 50 to 500 nM | 50 to 500 nM | 50 to 500 nM | 500 to 2500 nM
C=Cc1cnc(Nc2ccn(C(C)C)n2)nc1Nc1ccc2nccnc2c1N(C)S(C)(=O)=O [II-61] | 500 to 2500 nM | 50 to 500 nM | 500 to 2500 nM | ≤ 50 nM | 50 to 500 nM | 500 to 2500 nM
C=Cc1cnc(Nc2cc(C)n(C)n2)nc1Nc1ccc2nccnc2c1N(C)S(C)(=O)=O [II-62] | 500 to 2500 nM | 50 to 500 nM | 500 to 2500 nM | 500 to 2500 nM | 50 to 500 nM | 500 to 2500 nM
